Data reported in US8163909B2, “Substituted hydroxyethyl amine compounds as beta-secretase modulators and methods of use” (Amgen Inc., priority 2007, dated 2012).
Like-named read-outs stand apart in the source and are kept apart here.

What was measured:
[1] = Microsomal stability assay, human liver microsomes;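 further: pooled human liver microsomes at 0.25 mg/mL with 1 µM compound and NADPH at 37 °C, pH 7.4, for 30 min, unchanged parent quantified by LC-MS/MS against the 0 min sample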
[2] = target: CYP2D6 (Homo sapiens, UniProt P10635); test: CYP2D6 inhibition assay (bufuralol, pooled human liver microsomes)
[3] = target: Beta Secretase enzyme (BACE) (Homo sapiens, UniProt P56817); test: In vitro enzymatic BACE FRET (fluorescence resonance energy transfer) assay; format: biochemical;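 further: fluorescence read after 1 h with 50 nM quenched peptide substrate spanning the BACE cleavage site, in pH 4.2 acetate buffer containing 10% DMSO and nonionic detergent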
[4] = target: CYP3A4 (CYP3A) (Homo sapiens, UniProt P08684); test: in vitro; conditions: microsomes, pH 7.4;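 further: inhibition of CYP3A-mediated 1-hydroxymidazolam formation after 10 min incubation with NADPH, quantified by HPLC MS relative to metabolite produced without test compound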
[5] = system: Aβ40 in conditioned medium of cells stably expressing Amyloid Precursor Protein (APP); test: In vitro BACE cell-based assay (Aβ40 in conditioned medium, sandwich ELISA); conditions: Homo sapiens, HEK293, HEK cells;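 further: compounds added as a dilution series, secreted peptide quantified by europium time-resolved fluorescence readout, potency fitted from percent of control versus compound concentration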
[6] = Microsomal stability assay, rat liver microsomes;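 further: rat liver microsomes (0.25 mg/mL) with about 1 µM compound plus 1 mM NADPH, pH 7.4, 37 °C for 30 min, parent left measured by LC-MS/MS against 0 min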
[7] = 2D6 IC50 (uM), CYP enzyme inhibition
[8] = BACE enzyme assay, read-out: BACE1 FRET assay
[9] = read-out: BACE1 FRET assay (IC50)
[10] = read-out: HEK cell assay (IC50)

CYP2D6, sequence (P10635 whole entry): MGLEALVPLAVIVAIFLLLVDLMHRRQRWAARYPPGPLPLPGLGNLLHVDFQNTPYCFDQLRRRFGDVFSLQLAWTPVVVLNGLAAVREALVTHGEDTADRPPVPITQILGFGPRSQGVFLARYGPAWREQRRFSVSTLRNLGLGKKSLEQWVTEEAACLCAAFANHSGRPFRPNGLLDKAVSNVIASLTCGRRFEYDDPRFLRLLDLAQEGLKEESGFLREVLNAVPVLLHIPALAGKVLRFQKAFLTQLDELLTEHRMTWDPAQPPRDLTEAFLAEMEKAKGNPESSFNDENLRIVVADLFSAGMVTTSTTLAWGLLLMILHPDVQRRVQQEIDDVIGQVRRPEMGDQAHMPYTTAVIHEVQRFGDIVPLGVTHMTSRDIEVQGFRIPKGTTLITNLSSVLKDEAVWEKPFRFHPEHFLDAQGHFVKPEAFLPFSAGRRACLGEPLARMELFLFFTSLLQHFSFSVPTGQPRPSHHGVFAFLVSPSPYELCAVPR
Beta Secretase enzyme (BACE), sequence (P56817 46-501): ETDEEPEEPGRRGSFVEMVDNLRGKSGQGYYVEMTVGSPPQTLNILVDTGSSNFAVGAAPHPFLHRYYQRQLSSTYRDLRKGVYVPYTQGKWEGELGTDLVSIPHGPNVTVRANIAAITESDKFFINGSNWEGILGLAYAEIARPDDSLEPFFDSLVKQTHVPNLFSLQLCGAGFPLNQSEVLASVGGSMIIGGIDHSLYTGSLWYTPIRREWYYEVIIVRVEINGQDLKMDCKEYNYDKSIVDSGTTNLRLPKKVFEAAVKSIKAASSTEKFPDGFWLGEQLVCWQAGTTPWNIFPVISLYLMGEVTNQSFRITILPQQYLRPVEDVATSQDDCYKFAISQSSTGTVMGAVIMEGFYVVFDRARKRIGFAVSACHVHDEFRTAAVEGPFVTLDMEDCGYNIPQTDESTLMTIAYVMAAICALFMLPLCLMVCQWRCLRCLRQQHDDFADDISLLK
CYP3A4 (CYP3A), sequence (P08684 2-503): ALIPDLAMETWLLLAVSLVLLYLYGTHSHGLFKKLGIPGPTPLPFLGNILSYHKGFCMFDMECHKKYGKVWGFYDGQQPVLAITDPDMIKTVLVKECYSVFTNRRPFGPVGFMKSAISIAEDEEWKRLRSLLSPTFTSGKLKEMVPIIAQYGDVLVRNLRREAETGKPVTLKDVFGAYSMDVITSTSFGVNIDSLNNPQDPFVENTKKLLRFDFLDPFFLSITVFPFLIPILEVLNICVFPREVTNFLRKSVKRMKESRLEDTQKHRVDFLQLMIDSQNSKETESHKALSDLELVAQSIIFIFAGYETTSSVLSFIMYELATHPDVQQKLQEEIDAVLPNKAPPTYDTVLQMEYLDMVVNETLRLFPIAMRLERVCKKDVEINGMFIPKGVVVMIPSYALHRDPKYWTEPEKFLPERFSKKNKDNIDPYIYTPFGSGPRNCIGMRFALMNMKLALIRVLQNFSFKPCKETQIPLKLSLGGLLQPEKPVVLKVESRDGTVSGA

Compound | HLM ([1]; human liver microsomal data) | IC50 [2, 7] | IC50 [3, 8] | IC50 [4] | IC50 ([5]; read-out: HEK cell assay) | RLM ([6]; rat liver microsomal data) | HLM ([1]; human liver microsomes) | IC50 ([2]; 2D6 IC50, CYP2D6 inhibition) | IC50 [3, 9] | IC50 [5, 10] | RLM ([6]; rat liver microsomes)
COCC(=O)N[C@@H](Cc1cccc(F)c1)[C@H](O)CN[C@H]1CC2(CCC2)Oc2ccc(C[C@@H](C)F)cc21 [compound 559] | 706 µL/min/mg | 1.1 µM | 0.027 µM | 7.1 µM | 0.038 µM | 829 µL/min/mg | – | – | – | – | –
COCC(=O)N[C@@H](Cc1cc(F)cc(F)c1)[C@H](O)CN[C@H]1CC2(CCC2)Oc2c(-c3ccncc3)cc(Cl)cc21 [compound 560] | 209 µL/min/mg | 0.4 µM | 0.049 µM | 0.2 µM | 0.058 µM | 829 µL/min/mg | – | – | – | – | –
CO[C@H](C)C(=O)N[C@@H](Cc1cc(F)cc(F)c1)[C@H](O)CN[C@H]1CC2(CCC2)Oc2c(-c3ccncc3)cc(Cl)cc21 [compound 561] | 113 µL/min/mg | 0.4 µM | 0.092 µM | 0.1 µM | 0.262 µM | 426 µL/min/mg | – | – | – | – | –
COCC(=O)N[C@@H](Cc1ccc(F)cc1)[C@H](O)CN[C@H]1CC2(CCC2)Oc2c(-c3ccncc3)cc(CC(C)(C)C)cc21 [compound 562] | 24 µL/min/mg | 3.6 µM | 0.027 µM | 0.1 µM | 0.021 µM | 60 µL/min/mg | – | – | – | – | –
COCC(=O)N[C@@H](Cc1cccc(F)c1)[C@H](O)CN[C@H]1CC2(CCC2)Oc2c1cc([C@H](n1ccnc1)C(C)(C)C)cc2-n1ccnc1 [compound 563] | 40 µL/min/mg | 0.4 µM | 12 µM | 0.1 µM | > 10 µM | 40 µL/min/mg | – | – | – | – | –
CC(C)OCC(=O)N[C@@H](Cc1ccc(F)cc1)[C@H](O)CN[C@H]1CC2(CCC2)Oc2ncc(CC(C)(C)C)cc21 [compound 565] | 921 µL/min/mg | 23.8 µM | 0.049 µM | 0.6 µM | 0.267 µM | 829 µL/min/mg | – | – | – | – | –
CC[C@@H](OC)C(=O)N[C@@H](Cc1ccc(F)cc1)[C@H](O)CN[C@H]1CC2(CCC2)Oc2ncc(CC(C)(C)C)cc21 [compound 566] | 392 µL/min/mg | 13 µM | 0.026 µM | 0.3 µM | 0.165 µM | 590 µL/min/mg | – | – | – | – | –
CO[C@H](C)C(=O)N[C@@H](Cc1cccc(F)c1)[C@H](O)CN[C@H]1CC2(CCC2)Oc2c(-c3ccncc3)cc(CC(C)(C)O)cc21 [compound 567] | 67 µL/min/mg | 2.2 µM | 0.039 µM | 0.1 µM | 0.009 µM | 120 µL/min/mg | – | – | – | – | –
COCC(=O)N[C@@H](Cc1cc(F)cc(F)c1)[C@H](O)CN[C@H]1CC2(CCC2)Oc2c1cc(CC(C)(C)C)nc2Nc1cccnc1 [compound 568] | 214 µL/min/mg | 9.3 µM | 0.025 µM | 0.2 µM | 0.019 µM | 304 µL/min/mg | – | – | – | – | –
COCC(=O)N[C@@H](Cc1ccc(F)cc1)[C@H](O)CN[C@H]1CC2(CCC2)Oc2ncc(C(F)(F)C(C)(C)C)cc21 [compound 569] | 238 µL/min/mg | ≥ 27 µM | 0.165 µM | 0.7 µM | 0.992 µM | 423 µL/min/mg | – | – | – | – | –
CC(=O)N[C@@H](Cc1ccc(F)cc1)[C@H](O)CN[C@H]1CC2(CCC2)Oc2ncc(C(F)(F)C(C)(C)C)cc21 [compound 570] | 101 µL/min/mg | 7.1 µM | 0.136 µM | 0.8 µM | 0.405 µM | 162 µL/min/mg | – | – | – | – | –
COCC(=O)N[C@@H](Cc1cc(F)cc(F)c1)[C@H](O)CN[C@H]1CC2(CCC2)Oc2c1cc(CC(C)(C)C)nc2Nc1ccncc1 [compound 571] | 142 µL/min/mg | 2.3 µM | 0.053 µM | 0.1 µM | 0.003 µM | 193 µL/min/mg | – | – | – | – | –
CC[C@H](OC)C(=O)N[C@@H](Cc1ccc(F)cc1)[C@H](O)CN[C@H]1CC2(CCC2)Oc2ncc(CC(C)(C)C)cc21 [compound 572] | 290 µL/min/mg | 8.1 µM | 0.102 µM | 0.2 µM | 0.094 µM | 569 µL/min/mg | – | – | – | – | –
CC(=O)N[C@@H](Cc1ccc2c(c1)OCO2)[C@H](O)CN[C@H]1CC2(CCC2)Oc2ncc(C(F)(F)C(C)(C)C)cc21 [compound 574] | 46 µL/min/mg | 3.5 µM | 0.22 µM | 0.2 µM | 0.606 µM | 146 µL/min/mg | – | – | – | – | –
COCC(=O)N[C@@H](Cc1ccc2c(c1)OCO2)[C@H](O)CN[C@H]1CC2(CCC2)Oc2ncc([C@H]3CC3(C)C)cc21 [compound 576] | – | – | – | 0.1 µM | – | – | 31 µL/min/mg | 2.7 µM | 0.328 µM | 0.249 µM | 209 µL/min/mg
CO[C@H](C)C(=O)N[C@@H](Cc1ccc2c(c1)OCO2)[C@H](O)CN[C@H]1CC2(CCC2)Oc2ncc([C@H]3CC3(C)C)cc21 [compound 580] | – | – | – | 0.1 µM | – | – | 42 µL/min/mg | 4.4 µM | 0.357 µM | 0.776 µM | 186 µL/min/mg
CC(=O)N[C@@H](Cc1cc(F)cc(F)c1)[C@H](O)CN[C@H]1CC2(CCC2)Oc2c(-c3ccncc3)cc(Cl)cc21 [compound 582] | – | – | – | 0.1 µM | – | – | 97 µL/min/mg | 0.4 µM | 0.024 µM | 0.057 µM | 829 µL/min/mg
CC(=O)N[C@@H](Cc1cc(F)cc(F)c1)[C@H](O)CN[C@H]1CC2(CCC2)Oc2c1cc(CC(C)(C)C)nc2-c1ccncc1 [compound 584] | – | – | – | 0.1 µM | – | – | 18 µL/min/mg | 14.5 µM | 0.011 µM | 0.013 µM | 50 µL/min/mg
CO[C@H](C)C(=O)N[C@@H](Cc1cccc(F)c1)[C@H](O)CN[C@H]1CC2(CCC2)Oc2c(-c3ccncc3)cc(CC(C)(C)C)cc21 [compound 585] | – | – | – | 0.05 µM | – | – | 65.5 µL/min/mg | 0.75 µM | 0.016 µM | 0.012 µM | 120 µL/min/mg
COCC(=O)N[C@@H](Cc1cc(F)cc(F)c1)[C@H](O)CN[C@H]1CC2(CCC2)Oc2c(-c3ccncc3)cc(CC(C)C)cc21 [compound 586] | – | – | – | 0.1 µM | – | – | 31 µL/min/mg | 1.3 µM | 0.009 µM | 0.006 µM | 65 µL/min/mg
COCC(=O)N[C@@H](Cc1cccc(F)c1)[C@H](O)CN[C@H]1CC2(CCC2)Oc2c1cc(CC(C)(C)F)cc2-n1ccnc1 [compound 588] | – | – | – | 0.1 µM | – | – | 25 µL/min/mg | 0.6 µM | 0.027 µM | 0.006 µM | 74 µL/min/mg
COCC(=O)N[C@@H](Cc1cccc(F)c1)[C@H](O)CN[C@H]1CC2(CCC2)Oc2c1cc(C=C(C)C)cc2-n1ccnc1 [compound 589] | – | – | – | 0.2 µM | – | – | 27 µL/min/mg | 0.2 µM | 0.257 µM | 0.105 µM | 217 µL/min/mg
COCC(=O)N[C@@H](Cc1cccc(F)c1)[C@H](O)CN[C@H]1CC2(CCC2)Oc2c1cc([C@@H](O)C(C)(C)C)cc2-n1ccnc1 [compound 593] | – | – | – | 0.1 µM | – | – | 14 µL/min/mg | 1 µM | 1.59 µM | 0.312 µM | 29 µL/min/mg
CC(=O)N[C@@H](Cc1cccc(F)c1)[C@H](O)CN[C@H]1CC2(CCC2)Oc2c(-c3ccncc3)cc(Cl)cc21 [compound 595] | – | – | – | 0.1 µM | – | – | 147 µL/min/mg | 0.5 µM | 0.077 µM | 0.051 µM | 736 µL/min/mg
COCC(=O)N[C@@H](Cc1cc(F)cc(F)c1)[C@H](O)CN[C@H]1CC2(CCC2)Oc2c1cc(CC(C)(C)C)nc2Nc1ccccc1 [compound 599] | – | – | – | 6.4 µM | – | – | 120 µL/min/mg | ≥ 27 µM | 0.018 µM | 0.395 µM | 125 µL/min/mg
CC(=O)N[C@@H](Cc1ccc(F)c(-c2ccncc2)c1)[C@H](O)CN[C@H]1CC2(CCC2)Oc2ncc(CC(C)(C)C)cc21 [compound 602] | – | – | – | 0.16 µM | – | – | 124 µL/min/mg | 0.4 µM | 0.023 µM | 0.018 µM | 78 µL/min/mg
C[C@H](F)C(=O)N[C@@H](Cc1cccc(F)c1)[C@H](O)CN[C@H]1CC2(CCC2)Oc2ncc(CC(C)(F)F)cc21 [compound 608] | – | – | – | 4.5 µM | – | – | 232 µL/min/mg | 12.2 µM | 0.008 µM | 0.016 µM | 183 µL/min/mg
CO[C@H](C)C(=O)N[C@@H](Cc1cccc(F)c1)[C@H](O)CN[C@H]1CC2(CCC2)Oc2c(-c3ccncc3)cc(CC(C)C)cc21 [compound 609] | – | – | – | 0.1 µM | – | – | 64 µL/min/mg | 2 µM | 0.008 µM | 0.005 µM | 137 µL/min/mg
CC(=O)N[C@@H](Cc1ccc(F)cc1)[C@H](O)CN[C@H]1CC2(CCC2)Oc2c1cc(CC(C)(C)C)nc2Nc1ccccc1 [compound 610] | – | – | – | ≥ 27 µM | – | – | 102 µL/min/mg | ≥ 27 µM | 0.199 µM | > 10 µM | 213 µL/min/mg
COCC(=O)N[C@@H](Cc1ccccc1)[C@H](O)CN[C@H]1CC2(CCC2)Oc2ccc(C[C@H](C)F)cc21 [compound 611] | – | – | – | 18.4 µM | – | – | 644 µL/min/mg | 1.2 µM | 0.103 µM | 0.116 µM | 775 µL/min/mg
